Experimental data taken from ChEMBL document CHEMBL1157539, “Thousands of chemical starting points for antimalarial lead identification” (Nature, 2010).

System: Plasmodium falciparum
Assay: GSK_TCMDC: Inhibition of Plasmodium falciparum 3D7 in whole erythrocytes, using parasite LDH activity as an index of growth.
Assay type: functional, organism-based
Settings: Plasmodium falciparum, 3D7

## CCN(CC)CCCC(C)Nc1cc(C)nc2cc(Cl)ccc12 (centres undefined)
  XC50: 726 nM

## COc1ccc2[nH]c3ccccc3c(=O)c2c1
  XC50: 1000 nM

## O=C(Nc1ccc2c(c1)CCC2)N[C@H]1CCN(CCCCCNC(=O)C2CC2c2ccc(Cl)c(Cl)c2)C1 (some centres undefined)
  XC50: 1080 nM

## CNCCNCc1ccc(-c2ccc(-c3nc4cc(C(F)(F)F)ccc4[nH]3)cc2)cc1
  XC50: 314 nM

## c1cncc(CN2CCCN(c3ccc4c(c3)CCN(Cc3ccc(-c5ncc[nH]5)cc3)CC4)CC2)c1
  XC50: 747 nM

## CN(C)c1cccc(CN2CC=C(c3c[nH]c4ccc(Cl)cc34)CC2)c1
  XC50: 663 nM

## Cc1cccc2nc(-c3cccc(-c4ccc(C(=O)N5CCCCC5C(C)O)cc4)c3)[nH]c12 (centres undefined)
  XC50: 371 nM

## O=C(Nc1ccc(F)c(Cl)c1)c1cc([N+](=O)[O-])cc2cn[nH]c12
  XC50: 315 nM

## COc1ccc(N2C(N)=NC(N)=NC2(C)C)cc1OC
  XC50: 311 nM

## CCOc1cc(C(=O)Nc2ccc3nc(N4CCCCC4)cc(C)c3c2)cc(OCC)c1OCC
  XC50: 825 nM

## S=C(NCCCCCN1CCC(c2c[nH]c3ccccc23)CC1)Nc1cc(Cl)cc(Cl)c1
  XC50: 868 nM

## COc1ccc2[nH]ccc(=NN=Cc3cccc(C)n3)c2c1
  XC50: 764 nM

## C=CCOc1ccc(C(=O)Nc2nonc2-c2ccc(OC)c(OC)c2)cc1
  XC50: 642 nM

## Cc1cccc2nc(O)c([N+](=O)[O-])c(O)c12
  XC50: 911 nM

## C=CCn1ccc2c3c(N)nc(N)nc3ccc21
  XC50: 70 nM

## COc1ccc(CNCc2ccc(-c3cccc(-c4nc5ccccc5[nH]4)c3)cc2)cc1
  XC50: 214 nM

## O=C(O)c1ccc2c(c1)N(C(=O)CNCc1ccc(F)cc1)CC(=O)N2CCCc1ccccc1
  XC50: 919 nM

## COc1cccc(-c2cccc(-c3ccc(NC(=O)c4ccc([N+](=O)[O-])o4)cc3)n2)c1
  XC50: 515 nM

## COc1ccc(C(=O)NCCCCN2CCC(c3ccc4c(c3OC)CCCC4)CC2)cc1-c1ccc(C(F)(F)F)cc1
  XC50: 755 nM

## Cn1nc(-c2ccccc2F)c2cc(C(=O)Nc3cccnc3)sc21
  XC50: 810 nM

## COc1ccccc1Nc1nc(NC2CCN(C)CC2)cc(-c2cccc(C(F)(F)F)c2)n1
  XC50: 919 nM

## Fc1cccc(COc2ccc(Nc3ncnc4sc(C#C[C@H]5CC[C@H](CN6CCOCC6)N5)cc34)cc2Cl)c1
  XC50: 920 nM

## CS(=O)(=O)c1ccc(CNCc2cccc(-c3ccc(-c4nc5cc(C(F)(F)F)ccc5[nH]4)cc3)c2)cc1
  XC50: 513 nM

## COc1ccc(C(C(=O)NC2CCN(C[C@H](O)c3ccnc4ccc(OC)cc34)CC2)N2CCc3ccccc3C2)cc1 (some centres undefined)
  XC50: 697 nM

## CC(C)CC(=O)N1CCNC[C@@H]1C(=O)NC1CC1
  XC50: 1090 nM

## COc1c(OC)c(OC)c2ccccc2c1CCNCCCCNCCc1c(OC)c(OC)c(OC)c2ccccc12
  XC50: 612 nM

## Cc1cccc2nc(-c3ccc(-c4ccc(CNCc5cccc(N)c5)cc4)s3)[nH]c12
  XC50: 751 nM

## CCC(C)(C)NC(C)C(O)c1ccc(C(F)(F)F)cc1 (centres undefined)
  XC50: 750 nM

## CN1CCC(Oc2ccc(Nc3nccc(NCC(O)c4ccccc4)n3)cc2Cl)CC1 (centres undefined)
  XC50: 785 nM

## CC(=O)Nc1cccc(-c2cnc(N)c3cc(-c4ccc5c(c4)OCO5)ccc23)c1
  XC50: 491 nM

## c1ccc2c(Nc3ccc(OCCOCCOc4ccc(Nc5c6ccccc6nc6ccccc56)cc4)cc3)c3ccccc3nc2c1
  XC50: 284 nM

## CN1CCC(C(=O)N(Cc2ccc(-c3ccc(CNCCc4ccccc4)cn3)cc2)Cc2cccc(F)c2)CC1
  XC50: 935 nM

## CN1CCN(CCCN(Cc2cccc(-c3ccc(CNCCc4ccccc4)cc3)c2)C(=O)Nc2ccccc2)CC1
  XC50: 834 nM

## O=C(/C=C/c1ccc(Cl)c(Cl)c1)NCCCCCN1C2CCC1CC(c1c[nH]c3ccccc13)C2 (centres undefined)
  XC50: 840 nM

## Cc1nc2nc(N)nc(N)c2c(C)c1Cc1cccc(C(F)(F)F)c1
  XC50: 1290 nM

## CC1CCC(NCc2c(O)ccc3ccccc23)CC1 (centres undefined)
  XC50: 772 nM

## OCC1CCN(Cc2cccc(-c3ccc(-c4nc5cc(C(F)(F)F)ccc5[nH]4)cc3)c2)CC1
  XC50: 662 nM

## Nc1cc(-c2ccc3ccccc3c2)nc2ccccc12
  XC50: 699 nM

## Cc1ccc(Nc2nc3cc(Nc4ccnc(Nc5cccc(CS(C)(=O)=O)c5)n4)ccc3o2)cc1
  XC50: 923 nM

## CCOc1cc(NCCCNc2ncc([N+](=O)[O-])cc2C)nc2ccccc12
  XC50: 692 nM

## Cc1onc(-c2ccccc2Cl)c1C(=O)Nc1cc(Cl)c(Cl)cc1Cl
  XC50: 1180 nM

## CCCCCCOc1ccc(C(=O)NCCCC2CCN(CCCCCNC(=O)C=Cc3ccc(Cl)c(Cl)c3)CC2)cc1
  XC50: 854 nM

## Oc1ccc(CCNc2nc(NCc3cccc(-c4cc(C(F)(F)F)ccc4Cl)c3)nc(N3CCNCC3)n2)cc1
  XC50: 1780 nM

## COc1cc(C(F)(F)F)cc2[nH]c(CNCCCNc3nc4ccccc4[nH]3)cc12
  XC50: 280 nM

## CCc1cn(C)c2c(N3CCCC3=O)cc(C(=O)N[C@@H](Cc3ccccc3)[C@H](O)CNCc3cccc(OC)c3)cc12
  XC50: 784 nM

## O=C(C=Cc1ccc(Cl)c(Cl)c1)NCCCCCN1CCC(CCCNC(=O)C2CC2c2ccccc2)CC1 (centres undefined)
  XC50: 765 nM

## CN1CCN(c2nsc3ccc(-c4ccc(NC(=O)Nc5ccccc5)cc4)cc23)CC1
  XC50: 180 nM

## CN(C)Cc1ccc(-c2ccc(NC(=O)c3ccc4c(=O)n(Cc5ccccc5)cnc4c3)cc2)cc1
  XC50: 647 nM

## NS(=O)(=O)c1ccc(CNc2ccc3ncc(-c4ccc(OC(F)(F)F)cc4)n3n2)cc1
  XC50: 578 nM

## CN1CCN(c2ccnc3ccc(NC(=O)Nc4ccc(Br)cc4)cc23)CC1
  XC50: 92.5 nM

## COC(=O)c1ccc(CC(C)NCC(O)c2cccc(C(F)(F)F)c2)c(OC)c1 (centres undefined)
  XC50: 804 nM

## COc1ccc2nccc(N(C)CC3(O)CCN(CCc4ccc5c(c4)NC(=O)CS5)CC3)c2n1
  XC50: 136 nM

## CC1(C)N=C(N)N=C(N)N1OCc1cc(Cl)c(CON2C(N)=NC(N)=NC2(C)C)cc1Cl
  XC50: 37.8 nM

## CCCC(=O)NC(c1ccc(C)cc1)c1ccc2cccnc2c1O (centres undefined)
  XC50: 957 nM

## N=c1cc(C=Cc2ccc(O)cc2)[nH]c2ccccc12
  XC50: 993 nM

## Cc1ccc(NC(=O)c2ccc(CN3CCCN(CC4CCCCC4)CC3)cc2)cc1C
  XC50: 1020 nM

## c1nc(CCNc2nc(Nc3ccc4c(c3)OCO4)nc(NC3CCCC3)n2)c[nH]1
  XC50: 1150 nM

## Cc1cc(-c2nc3ccc(N4CCN(C)CC4)cc3[nH]2)nn1Cc1cc(Cl)ccc1OCC(C)C
  XC50: 878 nM

## Oc1ccc(CCNCCCCCCNCCc2ccc(Cl)c3ccccc23)cc1O
  XC50: 716 nM

## c1cc(CNC2Cc3ccc(-c4cccs4)cc3C2)cc(-n2ccnc2)c1 (centres undefined)
  XC50: 594 nM

## CCOC(=O)c1sc(C(C)Nc2ccccc2)nc1-c1ccccc1 (centres undefined)
  XC50: 333 nM

## Oc1ccc2[nH]cc(C3CCN(CCCCCCCCCN4CCC(c5c[nH]c6ccc(O)cc56)CC4)CC3)c2c1
  XC50: 314 nM

## O=C(N[C@@H](CC1CCCCC1)C(=O)NCCc1ccc(Cl)c(Cl)c1)c1ccc(O)c(-c2ccc(Cl)c(Cl)c2)c1
  XC50: 156 nM

## O=C(Nc1ccc(-c2ccccc2)c(OCCN2CCNCC2)c1)c1ccc(-c2ccc(Cl)cc2)cc1
  XC50: 779 nM

## Cc1cc(N2CCN(CC3CCN(C)CC3)CC2)nc(Nc2ccc(Cl)cc2)n1
  XC50: 698 nM

## O=C(NCc1ccc(F)cc1)c1cc(Br)cc(N2CCN(c3ccncc3)CC2)c1
  XC50: 1230 nM

## COc1ccc(C2N=C(N)N=C(N)N2c2ccc(Cl)cc2)cc1OC (centres undefined)
  XC50: 1000 nM

## CC(=O)Nc1ccc(Cl)c(Cl)c1
  XC50: 41.6 nM

## Cc1ccccc1Cn1c(CN2CCC(C(=O)NC3CC3)CC2)cc2ccccc21
  XC50: 477 nM

## O=C(NCCCCCN1CCC(c2c[nH]c3ccccc23)CC1)Nc1cccc(I)c1
  XC50: 993 nM

## O=C(NC1CCN(Cc2ccccc2O)C1)c1cccc(C(F)(F)F)c1 (centres undefined)
  XC50: 730 nM

## COc1ccc(CN(C)CCCCc2ccc(NC(=O)COc3cccc4sc5ccccc5c(=O)c34)cc2)cc1OC
  XC50: 809 nM

## CCCNC(=O)C1Cc2c([nH]c3ccc(Br)cc23)C2(CCN(CCc3ccccc3)CC2)N1 (centres undefined)
  XC50: 678 nM

## O=C(NCCCCNCC(Cc1cccc(O)c1)c1ccccc1)c1ccc(NC(=O)c2ccc(Cl)cc2)cc1 (centres undefined)
  XC50: 1040 nM

## CCNc1cc(C(=O)N[C@@H](Cc2ccccc2)[C@H](O)CNC(C)CC(C)C)c(F)c(N2CCCCS2(=O)=O)c1 (some centres undefined)
  XC50: 1120 nM

## COc1ccc(CCN(C)CCOc2ccc(NC(=O)c3cccc4c(=O)c5cc(SC)ccc5[nH]c34)cc2)cc1OC
  XC50: 740 nM

## FC(F)(F)c1ccc2[nH]c(-c3cccc(-c4cccc(CN5CCN(c6ccncc6)CC5)c4)c3)nc2c1
  XC50: 158 nM

## Cc1ccc2nc(C)cc(Nc3ccccc3O)c2c1
  XC50: 791 nM

## CCOC(=O)CNC(=O)N(CCN(Cc1ccccc1)C(=O)NCC(=O)OCC)Cc1ccccc1
  XC50: 769 nM

## COc1ccc(C2=[N+]([O-])c3ccccc3C2=O)cc1
  XC50: 783 nM

## Cc1cc(-c2ccc(Cl)cc2)c2c(N)c(C(=O)Nc3ccc(F)cc3)sc2n1
  XC50: 818 nM

## Cc1cc(=O)c(-c2ccc(Oc3cccc(Cl)c3)cc2)c(C)[nH]1
  XC50: 602 nM

## CCOc1ccccc1CNc1nccc(NCCc2cn(C)c3ccccc23)n1
  XC50: 1260 nM

## CCc1nc2nc(C)cc(Nc3ccc4c(c3)OCCO4)n2n1
  XC50: 1290 nM

## CCCCCCN1CCCN(Cc2ccc(C(=O)Nc3ccc(CC)cc3)cc2)CC1
  XC50: 756 nM

## CCOc1cccc(C(=O)Nc2cccc(CN3CCCN(Cc4ccc(O)cc4)CC3)c2)c1
  XC50: 824 nM

## CS(=O)(=O)NCCCNCc1cccc(-c2ccc(-c3nc4cc(C(F)(F)F)ccc4[nH]3)s2)c1
  XC50: 880 nM

## COc1ccc2nccc(NCC3(O)CCN(CC(O)c4ccc5c(c4)NC(=O)CS5)CC3)c2n1 (centres undefined)
  XC50: 834 nM

## CC(C)(C)c1ccc(Cn2nc(C(=O)N3CCN(C(=O)C4CCCO4)CC3)c3ccccc32)cc1 (centres undefined)
  XC50: 1320 nM

## O=C1OC2(CN1CC1CCN(Cc3ccc(O)cc3Cl)C1)c1ccccc1-c1ccccc12 (centres undefined)
  XC50: 1170 nM

## Cc1nn(-c2ccccc2)c2sc(C(=O)N(CCCN(C)C)c3nc(-c4ccccc4)cs3)cc12
  XC50: 981 nM

## Cc1nc2ccc(NC(=O)c3cc(S(=O)(=O)N(C)C)ccc3Cl)cc2s1
  XC50: 816 nM

## COc1ccc2nc(C)cc(Nc3ccc(Oc4ccc(Cl)c5ccccc45)c(Cl)c3)c2c1
  XC50: 730 nM

## COc1ccc(Cn2ncc3c4c(N)nc(N)nc4ccc32)cc1OC
  XC50: 3.2 nM

## CC(C)(C)c1nn(-c2ccccc2)c2[nH]c(=O)c(CNCCc3ccccc3)cc12
  XC50: 866 nM

## Clc1ccccc1OCc1ccccn1
  XC50: 994 nM

## COc1ccc(-c2ccc(NC(=O)c3ccc(C#N)cc3)cc2)cc1CN1CCCN(C)CC1
  XC50: 152 nM

## NC(=O)c1sc(-n2cnc3ccccc32)cc1OCc1ccccc1[N+](=O)[O-]
  XC50: 702 nM

## CC1CCN(CCCNc2ccc(C(=O)Nc3ccc(C(F)(F)F)cc3)cc2[N+](=O)[O-])CC1
  XC50: 340 nM
